Data published in patent US20200061018A1, “METHODS AND COMPOSITIONS FOR TREATING PARKINSON'S DISEASE” (Cove Bio LLC, priority 2016, published 2020).

Test system: patient with Parkinson's disease, positive for Malassezia infection
Test: Example 3: Parkinson's patient positive for Malassezia infection given intravenous amphotericin B deoxycholate plus intranasal saline irrigation
Assay type: in vivo, human
Conditions: i.v. 1.0 mg/kg/day for 3 weeks in combination with intranasal aqueous saline solution, follow-up 6 months after the course
Procedure: A patient is clinically evaluated by a physician for deterioration of health because of their progression of symptoms of Parkinson's disease which include tremor, speech dysfunction, aberrant personality changes, abulia, and difficulties with mentation. Patient has no overt symptoms of Malassezia infection. […] Patient is treated with an intravenous administration of a commercially available amphotericin formulation of amphotericin B deoxycholate at 1.0 mg/kg/day in combination with a twice daily treatment regimen of intranasal aqueous saline solution. The solution comprises a mixture of 1 teaspoon of baking soda, 1.5 teaspoons of salt, and 1 quart sterilized distilled water. The solution is administered intranasally using a pulsating irrigation device. The pulsating irrigation device sends a gentle pulse of the solution into the nose via a nasal irrigation tip that can reach into and contact with the upper nasal passages. The amphotericin B treatment regimen is discontinued after 3 weeks. The total amount of amphotericin B administered to the patient over the course of treatment is about 1.8 grams. The nasal wash is continued to be administered to the patient indefinitely on a once daily basis. Routine follow-up is conducted by the physician 6 months after completion of the amphotericin B treatment course.

## amphotericin B deoxycholate
  caregiver report of symptoms: improved mood, improved affect, decreased fatigue, decreased abulia, and improved mentation
person
  progression of Parkinson's disease measured with the MDS-UPDRS: halted
